In US20230015823A1, “METHODS OF ADMINISTERING VOXELOTOR” (Global Blood Therapeutics, Inc., priority 2019, published 2023):
Converted amounts (≈) assume the structure as drawn. “Also recorded” adds a separate entry of the source. Like-named read-outs stand apart in the source and are kept apart here.

Legend:
[1] = Clinical trials experience (HOPE trial): safety of OXBRYTA; assay type: in vivo, human
Experimental: The safety of OXBRYTA was evaluated in the HOPE trial based upon 88 patients who received OXBRYTA 1,500 mg and 91 patients who received placebo orally once daily [see Clinical Studies (14)]. Seventy-four patients received OXBRYTA 1,500 mg once daily for ≥24 weeks and 65 patients for ≥48 weeks.
In patients who received OXBRYTA 1,500 mg once daily the median age was 24 years (range: 12-59); 65% female; 66% Black or African American and 23% Arab/Middle Eastern; and 65% receiving hydroxyurea at baseline.

OCT2 = OCT2 (Homo sapiens, UniProt O15244); assay: In vitro transporter studies: OCT2; assay type: in vitro ADME
CYP2C19 = molecular target: T1, CYP2C19 (Homo sapiens, UniProt P33261); assay: Effect of voxelotor on PK of CYP2C19 probe substrate omeprazole in healthy subjects; assay type: in vivo
T1 construct: endogenous in cells; host or cells: healthy subjects, in vivo
Experimental: (§1) During Period 1, subjects received a single dose of caffeine 100 mg, warfarin sodium 10 mg+vitamin K 10 mg, omeprazole 20 mg, and midazolam hydrochloride 2 mg on Day 1. During Period 2, subjects received voxelotor 900 mg QD on Days 1 and 2 followed by 600 mg QD on Day 3, a single dose of caffeine 100 mg, warfarin sodium 10 mg+vitamin K 10 mg, omeprazole 20 mg, and midazolam hydrochloride 2 mg on Day 4, and voxelotor 600 mg QD on Days 4 through 7.
(§2) Whole blood and plasma concentrations of voxelotor and plasma concentrations of caffeine, paraxanthine, S-warfarin, omeprazole, 5-hydroxyomeprazole, midazolam, and 1-hydroxymidazolam were determined using validated assays.

QT interval = assay: Cardiac electrophysiology; assay type: in vivo; conditions: plasma concentrations approximately 2-fold above therapeutic concentrations
[2] = Drug substance properties (solubility, hygroscopicity); assay type: physicochemical; conditions: crystalline Form II free base
From the text: Voxelotor, the active drug substance, is a white-to-yellow-to-beige compound in crystalline Form II of its free base. It is non-hygroscopic.

rat = assay: Rat Comet assay; assay type: in vivo
From the text: Voxelotor was not genotoxic in the reverse mutation bacterial (Ames) test, rat Comet assay, or rat micronucleus assay.

BCRP = BCRP (Homo sapiens, UniProt Q9UNQ0); assay: In vitro transporter studies: BCRP; assay type: in vitro ADME
[3] = Clinical pharmacokinetics of voxelotor in plasma, whole blood and RBCs; assay type: in vivo, human; conditions: for AUC(0-t): read-out: AUC0-24h, Geometric Mean (% CV); for Cmax: read-out: Cmax, Geometric Mean (% CV)
From the text: Voxelotor is absorbed into plasma and is then distributed predominantly into RBCs due to its preferential binding to Hb. The major route of elimination of voxelotor is by metabolism with subsequent excretion of metabolites into urine and feces. The PK are linear and voxelotor exposures increased proportionally with either single or multiple doses (Table 3) in whole blood, plasma, and RBCs. Steady-state after repeated administration is reached within 8 days and exposures of voxelotor are consistent with accumulation predicted based on single dose data in patients with SCD.
The median plasma and whole blood Tmax of voxelotor after oral administration is 2 hours. The mean peak concentrations in whole blood and RBCs are observed between 6 and 18 hours after oral administration.
(§3) Voxelotor apparent volume of distribution of the central compartment and peripheral compartment are 338 L and 72.2 L in plasma, respectively. Protein binding is 99.8% in vitro. The blood-to-plasma ratio is approximately 15:1 in patients with SCD.

CYP2B6 = CYP2B6 (Homo sapiens, UniProt P20813); assay: In vitro studies: CYP2B6; assay type: in vitro ADME
Hb = assay: Pharmacodynamics: Hb oxygen affinity (p50) and clinical measures of hemolysis; assay type: in vivo
OAT3 = OAT3 (Homo sapiens, UniProt Q8TCC7); assay: In vitro transporter studies: OAT3; assay type: in vitro ADME
pregnant rats = assay: Embryo-fetal development study in pregnant rats; assay type: in vivo, rat
Experimental: In embryo-fetal development studies, voxelotor was administered orally to pregnant rats at 15, 50, and 250 mg/kg/day (gestation days 7 through 17) and rabbits at 25, 75, and 150 mg/kg/day (gestation days 7 through 19) through organogenesis.

CYP3A4 = CYP3A4 (Homo sapiens, UniProt P08684); assay: Effect of voxelotor on PK of CYP3A4 probe substrate midazolam in healthy subjects; conditions: human, in vivo
Experimental: as §1, §2

rats = assay: Fertility and early embryonic development study; assay type: in vivo, rat
Experimental: In a fertility and early embryonic development study, voxelotor was administered orally to rats at 15, 50, and 250 mg/kg/day. Males were dosed 28 days prior to mating through cohabitation and females were dosed 14 days prior to mating through gestation Day 7.

CYP2C8 = CYP2C8 (Homo sapiens, UniProt P10632)
P-gp = P-gp (Homo sapiens, UniProt P08183); assay: In vitro transporter studies: P-gp; assay type: in vitro ADME
Protein binding in vitro = assay type: in vitro ADME
From the text: as §3

[4] = human, oral, 1500 mg, plasma, Voxelotor 1,500 mg
[5] = human, oral, 1500 mg, whole blood, Voxelotor 1,500 mg

T1 sequence (P33261 whole entry): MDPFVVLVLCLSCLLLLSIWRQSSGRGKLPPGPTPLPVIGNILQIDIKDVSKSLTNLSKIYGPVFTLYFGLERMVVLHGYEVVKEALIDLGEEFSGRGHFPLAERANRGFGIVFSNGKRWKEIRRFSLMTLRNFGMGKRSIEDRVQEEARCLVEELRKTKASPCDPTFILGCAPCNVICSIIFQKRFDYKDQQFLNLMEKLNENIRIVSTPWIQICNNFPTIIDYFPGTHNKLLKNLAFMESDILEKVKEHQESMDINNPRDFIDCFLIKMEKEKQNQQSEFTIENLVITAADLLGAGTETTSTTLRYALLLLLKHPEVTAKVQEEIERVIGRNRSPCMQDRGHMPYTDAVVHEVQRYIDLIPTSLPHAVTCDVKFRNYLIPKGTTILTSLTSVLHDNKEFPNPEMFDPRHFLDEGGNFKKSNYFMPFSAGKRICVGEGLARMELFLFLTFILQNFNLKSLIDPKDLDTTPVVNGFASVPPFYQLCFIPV
Chain of P-gp (P08183 whole entry): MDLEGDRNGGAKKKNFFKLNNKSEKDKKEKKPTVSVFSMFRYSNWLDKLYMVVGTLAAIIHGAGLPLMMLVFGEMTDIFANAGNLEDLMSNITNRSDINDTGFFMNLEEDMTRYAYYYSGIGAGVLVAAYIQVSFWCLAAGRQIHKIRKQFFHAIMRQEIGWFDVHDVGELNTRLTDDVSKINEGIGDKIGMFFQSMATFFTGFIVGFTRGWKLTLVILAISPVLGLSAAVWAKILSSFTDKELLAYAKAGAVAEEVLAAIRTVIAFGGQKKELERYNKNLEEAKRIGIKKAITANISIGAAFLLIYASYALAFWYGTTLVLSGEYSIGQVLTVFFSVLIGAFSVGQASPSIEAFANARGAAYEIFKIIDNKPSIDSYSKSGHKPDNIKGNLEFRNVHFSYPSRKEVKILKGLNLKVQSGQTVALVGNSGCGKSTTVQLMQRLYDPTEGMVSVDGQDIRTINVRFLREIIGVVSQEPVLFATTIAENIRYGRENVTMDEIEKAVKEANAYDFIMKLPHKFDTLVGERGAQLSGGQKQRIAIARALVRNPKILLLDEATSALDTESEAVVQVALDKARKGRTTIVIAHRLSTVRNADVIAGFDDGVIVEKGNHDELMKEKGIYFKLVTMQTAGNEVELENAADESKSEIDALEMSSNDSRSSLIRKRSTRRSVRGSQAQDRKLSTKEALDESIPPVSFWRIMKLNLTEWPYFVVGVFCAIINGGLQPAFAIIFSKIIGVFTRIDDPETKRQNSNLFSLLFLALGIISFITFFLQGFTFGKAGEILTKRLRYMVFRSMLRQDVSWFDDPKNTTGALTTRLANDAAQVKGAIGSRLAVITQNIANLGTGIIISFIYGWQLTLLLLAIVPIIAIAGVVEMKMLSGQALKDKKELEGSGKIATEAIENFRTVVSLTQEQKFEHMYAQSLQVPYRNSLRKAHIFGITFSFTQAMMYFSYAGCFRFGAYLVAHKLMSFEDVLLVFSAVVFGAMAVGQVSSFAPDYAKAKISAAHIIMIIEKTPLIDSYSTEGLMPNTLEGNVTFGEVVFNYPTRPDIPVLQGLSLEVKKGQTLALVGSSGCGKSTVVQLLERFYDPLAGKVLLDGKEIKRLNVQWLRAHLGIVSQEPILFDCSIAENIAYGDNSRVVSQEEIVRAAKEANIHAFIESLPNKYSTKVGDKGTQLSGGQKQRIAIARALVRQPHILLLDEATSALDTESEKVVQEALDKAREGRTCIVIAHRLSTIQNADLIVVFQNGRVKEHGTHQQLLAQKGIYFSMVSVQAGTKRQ
Chain of BCRP (Q9UNQ0 whole entry): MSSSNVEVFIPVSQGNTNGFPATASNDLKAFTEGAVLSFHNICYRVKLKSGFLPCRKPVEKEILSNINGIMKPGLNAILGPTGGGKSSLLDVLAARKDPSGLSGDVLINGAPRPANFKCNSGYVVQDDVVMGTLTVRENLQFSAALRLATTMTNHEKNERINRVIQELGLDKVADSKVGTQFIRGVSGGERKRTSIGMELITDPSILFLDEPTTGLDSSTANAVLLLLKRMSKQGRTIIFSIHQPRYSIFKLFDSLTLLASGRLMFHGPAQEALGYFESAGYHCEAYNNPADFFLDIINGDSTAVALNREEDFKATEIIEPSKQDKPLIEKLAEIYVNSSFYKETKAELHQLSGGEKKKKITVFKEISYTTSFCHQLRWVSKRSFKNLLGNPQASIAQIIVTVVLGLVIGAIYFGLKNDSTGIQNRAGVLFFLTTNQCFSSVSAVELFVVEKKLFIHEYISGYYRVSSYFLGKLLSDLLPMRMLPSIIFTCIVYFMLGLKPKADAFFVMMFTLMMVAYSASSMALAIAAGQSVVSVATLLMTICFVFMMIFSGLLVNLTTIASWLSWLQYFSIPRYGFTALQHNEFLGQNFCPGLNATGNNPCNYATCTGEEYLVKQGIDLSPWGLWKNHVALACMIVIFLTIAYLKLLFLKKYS
Chain of CYP2B6 (P20813 whole entry): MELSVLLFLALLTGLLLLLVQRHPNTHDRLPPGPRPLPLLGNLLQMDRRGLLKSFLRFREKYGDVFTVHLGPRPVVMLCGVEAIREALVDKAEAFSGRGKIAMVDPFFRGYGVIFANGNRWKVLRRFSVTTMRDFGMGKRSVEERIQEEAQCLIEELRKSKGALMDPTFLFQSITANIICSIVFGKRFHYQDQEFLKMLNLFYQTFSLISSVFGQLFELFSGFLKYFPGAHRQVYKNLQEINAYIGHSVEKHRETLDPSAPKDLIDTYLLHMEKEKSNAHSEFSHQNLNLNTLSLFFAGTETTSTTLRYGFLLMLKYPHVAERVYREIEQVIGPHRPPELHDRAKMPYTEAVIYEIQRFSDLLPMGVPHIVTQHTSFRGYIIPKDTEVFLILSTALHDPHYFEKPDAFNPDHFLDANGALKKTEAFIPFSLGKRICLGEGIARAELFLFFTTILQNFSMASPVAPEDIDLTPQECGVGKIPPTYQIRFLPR
Chain of CYP2C8 (P10632 whole entry): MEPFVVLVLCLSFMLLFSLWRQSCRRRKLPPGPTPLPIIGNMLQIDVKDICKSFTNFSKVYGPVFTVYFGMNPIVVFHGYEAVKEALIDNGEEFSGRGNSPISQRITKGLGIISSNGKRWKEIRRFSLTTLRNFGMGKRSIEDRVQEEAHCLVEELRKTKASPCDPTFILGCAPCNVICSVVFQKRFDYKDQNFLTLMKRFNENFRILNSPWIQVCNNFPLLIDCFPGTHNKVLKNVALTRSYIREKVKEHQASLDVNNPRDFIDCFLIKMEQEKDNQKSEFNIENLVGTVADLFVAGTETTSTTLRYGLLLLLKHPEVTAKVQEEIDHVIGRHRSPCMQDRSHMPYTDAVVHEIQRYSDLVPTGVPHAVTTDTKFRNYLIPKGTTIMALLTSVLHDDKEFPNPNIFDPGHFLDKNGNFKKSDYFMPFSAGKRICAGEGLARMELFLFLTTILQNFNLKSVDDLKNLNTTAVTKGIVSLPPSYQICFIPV
Chain of OCT2 (O15244 whole entry): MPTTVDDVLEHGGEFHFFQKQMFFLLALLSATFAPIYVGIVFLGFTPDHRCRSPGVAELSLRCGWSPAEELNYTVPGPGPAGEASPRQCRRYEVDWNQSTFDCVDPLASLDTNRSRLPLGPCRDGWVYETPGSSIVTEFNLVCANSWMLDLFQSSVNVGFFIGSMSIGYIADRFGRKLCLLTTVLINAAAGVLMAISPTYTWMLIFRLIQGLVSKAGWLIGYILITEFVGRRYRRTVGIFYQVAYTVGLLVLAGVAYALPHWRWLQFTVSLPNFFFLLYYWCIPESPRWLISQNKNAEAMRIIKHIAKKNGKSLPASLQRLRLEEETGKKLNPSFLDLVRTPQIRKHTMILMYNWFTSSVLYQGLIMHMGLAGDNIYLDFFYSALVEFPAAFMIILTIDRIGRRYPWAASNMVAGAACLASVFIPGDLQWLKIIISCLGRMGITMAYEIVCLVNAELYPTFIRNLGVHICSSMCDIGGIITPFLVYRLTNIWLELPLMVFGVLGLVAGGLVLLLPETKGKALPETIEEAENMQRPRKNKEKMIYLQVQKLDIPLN
Chain of CYP3A4 (P08684 whole entry): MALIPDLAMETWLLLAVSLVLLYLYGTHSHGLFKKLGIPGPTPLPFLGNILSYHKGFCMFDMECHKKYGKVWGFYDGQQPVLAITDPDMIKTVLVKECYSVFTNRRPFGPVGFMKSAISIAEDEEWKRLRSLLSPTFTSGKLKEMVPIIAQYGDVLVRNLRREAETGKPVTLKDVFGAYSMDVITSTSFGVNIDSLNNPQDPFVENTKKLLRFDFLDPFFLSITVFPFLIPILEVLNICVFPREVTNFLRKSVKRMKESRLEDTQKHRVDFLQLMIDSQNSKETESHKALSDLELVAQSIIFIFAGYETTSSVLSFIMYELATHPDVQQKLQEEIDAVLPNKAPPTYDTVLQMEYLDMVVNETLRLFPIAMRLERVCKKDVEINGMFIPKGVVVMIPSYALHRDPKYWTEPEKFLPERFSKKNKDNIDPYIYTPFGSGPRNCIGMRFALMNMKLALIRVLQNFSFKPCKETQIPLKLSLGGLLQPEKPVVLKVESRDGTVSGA
Chain of OAT3 (Q8TCC7 whole entry): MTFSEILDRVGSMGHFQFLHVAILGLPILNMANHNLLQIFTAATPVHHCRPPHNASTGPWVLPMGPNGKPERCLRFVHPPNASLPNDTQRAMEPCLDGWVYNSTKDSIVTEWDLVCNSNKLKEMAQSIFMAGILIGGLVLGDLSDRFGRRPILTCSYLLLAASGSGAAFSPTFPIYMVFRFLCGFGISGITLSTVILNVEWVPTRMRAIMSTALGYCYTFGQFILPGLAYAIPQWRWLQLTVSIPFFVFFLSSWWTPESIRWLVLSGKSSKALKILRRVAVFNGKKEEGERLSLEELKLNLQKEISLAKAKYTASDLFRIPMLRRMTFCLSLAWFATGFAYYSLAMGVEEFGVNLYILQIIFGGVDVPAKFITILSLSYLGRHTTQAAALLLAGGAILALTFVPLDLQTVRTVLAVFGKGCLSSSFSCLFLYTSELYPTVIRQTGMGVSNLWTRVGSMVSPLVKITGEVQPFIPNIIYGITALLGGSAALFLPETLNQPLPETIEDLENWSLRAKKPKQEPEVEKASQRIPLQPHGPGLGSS

For `CC(C)n1nccc1-c1ncccc1COc1cccc(O)c1C=O` [voxelotor, 2-hydroxy-6-((2-(1-isopropyl-1H-pyrazol-5-yl)pyridin-3-yl)methoxy)benzaldehyde], the “Adverse reaction: Abdominal Pain (grouped PTs)” value ([1]; HOPE, 1,500 mg (N = 88)) was 17 (19%) n (%), the “Adverse reaction: Diarrhea” value ([1]; HOPE, 1,500 mg (N = 88)) was 18 (20%) n (%) and the “Adverse reaction: Fatigue” value ([1]; HOPE, 1,500 mg (N = 88)) was 12 (14%) n (%). For the same compound, the “Adverse reaction: Headache” value ([1]; HOPE, 1,500 mg (N = 88)) was 23 (26%) n (%), the “Adverse reaction: Nausea” value ([1]; HOPE, 1,500 mg (N = 88)) was 15 (17%) n (%) and the “Adverse reaction: Pyrexia” value ([1]; HOPE, 1,500 mg (N = 88)) was 11 (12%) n (%). For the same compound, the “Adverse reaction: Rash (grouped PTs)” value ([1]; HOPE, 1,500 mg (N = 88)) was 12 (14%) n (%), the “patients with serious adverse reactions” value ([1]; HOPE, 1,500 mg once daily, 3/88) was 3% and the “permanent discontinuation due to an adverse reaction (Grades 1-4)” value ([1]; HOPE, 1,500 mg once daily, 4/88) was 5%. For the same compound, the “dosage modifications (dose reduction or dosing interruption) due to an adverse reaction” value ([1]; HOPE, 36/88) was 41%, the “patients with serious hypersensitivity reactions” value ([1]; patients treated) was < 1% and the “inhibition of OCT2” value (OCT2) was “not an inhibitor”. For the same compound, the “effect of voxelotor on PK of CYP2C19 probe substrate (omeprazole)” value (CYP2C19; healthy subjects, multiple doses of voxelotor 900/600 mg QD) was “no clinically meaningful effect”, the “inhibition of CYP2C19 in vivo” value (CYP2C19; human, in vivo) was “not” and the QT interval prolongation (QT interval) was “does not prolong QT interval to any clinically relevant extent”. The hygroscopicity [2] was “non-hygroscopic”, the “solubility in common organic solvents such as acetone and toluene” value [2] was “highly soluble” and the solubility ([2]; water) was ~30 µg/mL (≈ 88.9 µM). The genotoxicity (rat) was “not genotoxic”, the “inhibition of BCRP” value (BCRP) was “not an inhibitor” and the “substrate of BCRP” value (BCRP) was “not a substrate”. The AUC(0-t) [3, 4] was 246 µg·h/mL, the Cmax [3, 4] was 12.6 µg/mL and the AUC(0-t) [3, 5] was 3820 µg·h/mL. It also gave a Cmax [3, 5] of 179 µg/mL, a half-life ([3]; human, plasma, oral, 1500 mg, patients with SCD, read-out: terminal elimination half-life, geometric mean (converted)) of 35.5 h and a Vd ([3]; human, plasma, oral, read-out: apparent volume of distribution of the central compartment) of 338 L. The Tmax ([3]; human, plasma and whole blood, oral administration, read-out: median Tmax) was 2 h, the “time to steady-state after repeated administration” value ([3]; patients with SCD) was ≤ 8 days and the “apparent volume of distribution of the peripheral compartment” value ([3]; plasma) was 72.2 L. For the same compound, the “Half-life, Geometric Mean (% CV)” value ([3]; plasma, Voxelotor 1,500 mg) was 35.5 (25) hours, the apparent oral clearance ([3]; plasma, patients with SCD) was 6.7 L/h and the PK linearity ([3]; single or multiple doses, whole blood, plasma and RBCs) was “linear”. For the same compound, the “induction of CYP2B6” value (CYP2B6) was “inducer”, the “inhibition of CYP2B6” value (CYP2B6) was “reversible and time-dependent inhibitor” and the “clinical measures of hemolysis (indirect bilirubin and % reticulocytes)” value (Hb; in vivo) was “dose-dependent reduction”. For the same compound, the “Hb oxygen affinity as determined by the change in p50” value (Hb; linearly correlated with voxelotor exposure) was “dose-dependent increase in Hb oxygen affinity”, the “inhibition of OAT3” value (OAT3) was “not an inhibitor” and the adverse developmental outcomes (pregnant rats; pregnant rats, oral 15, 50, 250 mg/kg/day, gestation days 7 through 17) was “no adverse developmental effects; also recorded: no evidence of adverse developmental outcomes”. The “exposure at highest dose level (maternal toxicity observed) relative to exposure in patients at the recommended daily dose” value (pregnant rats; rats, 250 mg/kg/day) was 2.8 times, the “inhibition of CYP3A4 in vivo” value (CYP3A4) was “inhibits” and the “exposure at 250 mg/kg/day relative to human exposure at 1,500 mg/day” value (rats) was “approximately 5 times”. The sperm motility (rats; 250 mg/kg/day, changes in sperm morphology also occurred) was “decreased”, the “effect on fertility or reproductive function” value (rats; oral 15, 50, 250 mg/kg/day) was “no effect on fertility or reproductive function” and the “inhibition of CYP2C8 in vivo” value (CYP2C8) was “not”. The “inhibition of P-gp” value (P-gp) was “not an inhibitor”, the “substrate of P-gp” value (P-gp) was “not a substrate” and the fraction unbound (Protein binding in vitro) was 0.002.
